Data taken from patent US6156724A, “Uses of didemnins as immunomodulating agents” (priority 1998, dated 2000).
Numbered stars: 1 amine (or outer) side, 2 acyl side, 3 side chain; on linkers, the order of the positions; unused ones are H or OH. Bridge positions count the residues as written; N and C are the ends. Square brackets hold non-standard residues; d marks the D form. Peptide text beside a SMILES is read from it. * marks the point of attachment. X2 = CC[C@H](C)[C@@H](N[*:1])[C@@H](O)CC(=O)O[C@@H](C(=O)[C@H](C)C(=O)[*:2])C(C)C; X1 = CC[C@H](C)[C@@H](N[*:1])[C@@H](O)CC(=O)O[C@H](C(=O)[C@H](C)C(=O)[*:2])C(C)C; X3 = CC[C@H](C)[C@H](N[*:1])[C@@H](O)CC(=O)O[C@H](C(=O)[C@H](C)C(=O)[*:2])C(C)C; X7 = CCC(C)C(N[*:1])C(O)CC(=O)OC(C(=O)C(C)C(=O)[*:2])C(C)C; NMeY = CN[CH](Cc1ccc(O)cc1)C(=O)O; Stearoyl = CCCCCCCCCCCCCCCCCC(=O)*; dNMeL = CN[C@H](CC(C)C)C(=O)O; Lauroyl = CCCCCCCCCCCC(=O)*; NMeL = CN[CH](CC(C)C)C(=O)O; Isobutyryl = CC(C)C(=O)*; Pyruvoyl = CC(=O)C(=O)*; Cbz = O=C(OCc1ccccc1)*; Pentanoyl = CCCCC(=O)*; Butyryl = CCCC(=O)*

Assays:
[1] = tested on: murine splenocytes (Balb/c and C57B1/6); experiment: Two-way mixed lymphocyte reaction (MLR) assay; conditions: Balb/c + C57B1/6 splenocytes, 96 h, [3H]thymidine; for IC50: read-out: two-way mixed lymphocyte reaction (MLR) suppression MLR, IC50;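 as to all read-outs here: proliferation read as tritiated thymidine incorporation into newly made DNA after an overnight pulse, expressed as percent of control activity, IC50 interpolated per compound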
[2] = tested on: concanavalin A-induced lymphoblasts (Con A splenocytes); experiment: Lymphoblast viability (LbV) assay; conditions: Con A-stimulated splenocytes (lymphoblasts), MTT
[3] = tested on: Balb/c splenocytes (resting lymphocytes); experiment: Lymphocyte viability (LcV) assay; type: cell-based, murine; conditions: unstimulated Balb/c splenocytes, MTT
Method: Forty two (42) didemnin compounds (see Table 1) were evaluated for cytotoxicity to one of the lymphocyte populations in the MLR (i.e., Balb/c splenocytes). The purpose of the lymphocyte viability assay (LcV) is to measure metabolic activity in lymphocytes after they have been exposed to the compounds for the duration of an under conditions equivalent to the MLR. The inverse of the data yields cytotoxicity information about the compounds on murine lymphocytes. The rationale of using resting cells, in this case unstimulated lymphocytes, to measure cytotoxicity has a strategic importance. In the MLR the heterogenous cell populations are predominantly resting cells when the assay begins.
Test compounds were prepared in two sets as described above. Splenocytes were prepared as described previously from one murine strain (Balb/c), and a volume of 200 μL of the cell suspension was added to one set of test compounds and control wells.
Assay plates were incubated as in the MLR and then pulsed overnight 75 μL per well MTT-thiazolyl blue solution (150 μg). The plates were decanted and the resulting insoluble formazan crystals were dissolved in 200 μL of isopropyl alcohol. Absorbance at 570 nm was measured.
The LcV data were calculated as a percentage of basal metabolic activity, or percent viability, relative to BALB/c control, and an LC50 value was interpolated for each test compound.

Question: With `CC[C@H](C)[C@@H]1NC(=O)[C@@H](NC(=O)[C@@H](CC(C)C)N(C)C(=O)OCc2ccccc2)[C@@H](C)OC(=O)[C@H](Cc2ccc(OC)cc2)N(C)C(=O)[C@@H]2CCCN2C(=O)[C@H](CC(C)C)NC(=O)[C@@H](C)C(=O)[C@H](C(C)C)OC(=O)C[C@@H]1O` [Compound 6, Z-[(3S,4S,5S)-Ist^2]Didemnin A] (Cbz-[dNMeL]T[X3]LP[NMeY](Me); ester 2-C) as the compound, how does the “two-way mixed lymphocyte reaction (MLR) suppression MLR, IC50” value (shortened to “two-way mixed lymphocyte reaction”) [1] read?
Answer: 0.29 µg/mL

Question: What about the IC50 [1] of the same compound?
Answer: 270 nM

Question: And the “cytotoxicity to lymphocytes LbV, LC50” value [2]?
Answer: 2600 nM

Question: And the “cytoxicity to lymphocytes LcV, LC50” value [3]?
Answer: > 9300 nM

Question: And the “cytoxicity to lymphocytes LcV, LC50” value ([3]; highest concentration 10 μg/mL)?
Answer: > 10 µg/mL

Question: How did the “two-way mixed lymphocyte reaction” value [1] turn out when `CCCC(=O)N(C)C(CC(C)C)C(=O)NC1C(=O)NC(C(C)CC)C(O)CC(=O)OC(C(C)C)C(=O)C(C)C(=O)NC(CC(C)C)C(=O)N2CCCC2C(=O)N(C)C(Cc2ccc(OC)cc2)C(=O)OC1C` (stereo not drawn) [Compound 20, N^α -n-Butyryldidemnin A] (Butyryl-[NMeL]T[X7]LP[NMeY](Me); ester 2-C; configuration not given here) was run?
Answer: 0.0003 µg/mL

Question: What about the IC50 [1] of the same compound?
Answer: 0.3 nM

Question: And the “cytotoxicity to lymphocytes LbV, LC50” value [2]?
Answer: 0.074 nM

Question: And the “cytoxicity to lymphocytes LcV, LC50” value [3]?
Answer: 99 nM

Question: `CC[C@H](C)[C@H]1NC(=O)[C@@H](NC(=O)[C@@H](CC(C)C)N(C)C(=O)[C@@H]2CCCN2C(=O)C(C)=O)[C@@H](C)OC(=O)[C@H](Cc2ccc(OC)cc2)N(C)C(=O)[C@@H]2CCCN2C(=O)[C@H](CC(C)C)NC(=O)[C@@H](C)C(=O)[C@H](C(C)C)OC(=O)C[C@@H]1O` [Compound 30, dehydrodidemnin B] (Pyruvoyl-P[dNMeL]T[X1]LP[NMeY](Me); ester 3-C) was tested. Which “two-way mixed lymphocyte reaction” value [1] did it give?
Answer: 0.00043 µg/mL

Question: And the IC50 [1]?
Answer: 0.38 nM

Question: And the “cytotoxicity to lymphocytes LbV, LC50” value [2]?
Answer: 0.079 nM

Question: And the “cytoxicity to lymphocytes LcV, LC50” value [3]?
Answer: 2600 nM

Question: What about the “cytoxicity to lymphocytes LcV, LC50” value ([3]; highest concentration 10 μg/mL) of the same compound?
Answer: 2.90 µg/mL

Question: What does the source list for `CCCCCCCCCCCCCCCCCC(=O)N(C)[C@H](CC(C)C)C(=O)N[C@@H]1C(=O)N[C@H]([C@@H](C)CC)[C@@H](O)CC(=O)O[C@@H](C(C)C)C(=O)[C@H](C)C(=O)N[C@@H](CC(C)C)C(=O)N2CCC[C@H]2C(=O)N(C)[C@@H](Cc2ccc(OC)cc2)C(=O)O[C@@H]1C` [Compound 25, N^α -Octadecanoyldidemnin A] (Stearoyl-[dNMeL]T[X1]LP[NMeY](Me); ester 2-C)?
Answer: two-way mixed lymphocyte reaction (MLR) suppression MLR, IC50 [1]: 6.04 µg/mL; IC50 [1]: 5110 nM; cytotoxicity to lymphocytes LbV, LC50 [2]: 2700 nM; cytoxicity to lymphocytes LcV, LC50 [3]: > 8500 nM; cytoxicity to lymphocytes LcV, LC50 ([3]; highest concentration 10 μg/mL): > 10 µg/mL

Question: Which “two-way mixed lymphocyte reaction” value [1] does the source give for `CCCCC(=O)N(C)[C@H](CC(C)C)C(=O)N[C@@H]1C(=O)N[C@H]([C@@H](C)CC)[C@@H](O)CC(=O)O[C@@H](C(C)C)C(=O)[C@H](C)C(=O)N[C@@H](CC(C)C)C(=O)N2CCC[C@H]2C(=O)N(C)[C@@H](Cc2ccc(OC)cc2)C(=O)O[C@@H]1C` [Compound 21, N^α -Pentanoyldidemnin A] (Pentanoyl-[dNMeL]T[X1]LP[NMeY](Me); ester 2-C) here?
Answer: 0.00048 µg/mL

Question: And the IC50 [1]?
Answer: 0.48 nM

Question: What about the “cytotoxicity to lymphocytes LbV, LC50” value [2] of the same compound?
Answer: 0.059 nM

Question: And the “cytoxicity to lymphocytes LcV, LC50” value [3]?
Answer: 9700 nM

Question: What about the “cytoxicity to lymphocytes LcV, LC50” value ([3]; highest concentration 10 μg/mL) of the same compound?
Answer: > 10 µg/mL

Question: Which “two-way mixed lymphocyte reaction” value [1] does the source give for `CC[C@H](C)[C@H]1NC(=O)[C@@H](NC(=O)[C@@H](CC(C)C)N(C)C(=O)[C@@H]2CCCN2C(=O)[C@H](C)O)[C@@H](C)OC(=O)[C@H](Cc2ccc(OC)cc2)N(C)C(=O)[C@@H]2CCCN2C(=O)[C@H](CC(C)C)NC(=O)[C@@H](C)C(=NO)[C@H](C(C)C)OC(=O)C[C@@H]1O` [Compound 11, [Hip^3 oxime]Didemnin B] here?
Answer: 0.00096 µg/mL

Question: And the IC50 [1]?
Answer: 0.85 nM

Question: What about the “cytotoxicity to lymphocytes LbV, LC50” value [2] of the same compound?
Answer: 1.7 nM

Question: What about the “cytoxicity to lymphocytes LcV, LC50” value [3] of the same compound?
Answer: > 8900 nM

Question: What about the “cytoxicity to lymphocytes LcV, LC50” value ([3]; highest concentration 10 μg/mL) of the same compound?
Answer: > 10 µg/mL

Question: With `CCCCCCCCCCCC(=O)N(C)[C@H](CC(C)C)C(=O)N[C@@H]1C(=O)N[C@H]([C@@H](C)CC)[C@@H](O)CC(=O)O[C@@H](C(C)C)C(=O)[C@H](C)C(=O)N[C@@H](CC(C)C)C(=O)N2CCC[C@H]2C(=O)N(C)[C@@H](Cc2ccc(OC)cc2)C(=O)O[C@@H]1C` [Compound 24, N^α -Dodecanoyldidemnin A] (Lauroyl-[dNMeL]T[X1]LP[NMeY](Me); ester 2-C) as the compound, how does the “two-way mixed lymphocyte reaction” value [1] read?
Answer: 0.119 µg/mL

Question: What about the IC50 [1] of the same compound?
Answer: 106 nM

Question: And the “cytotoxicity to lymphocytes LbV, LC50” value [2]?
Answer: 160 nM

Question: What about the “cytoxicity to lymphocytes LcV, LC50” value [3] of the same compound?
Answer: > 8900 nM

Question: What about the “cytoxicity to lymphocytes LcV, LC50” value ([3]; highest concentration 10 μg/mL) of the same compound?
Answer: > 10 µg/mL

Question: Which results are given for `CC[C@H](C)[C@H]1NC(=O)[C@@H](NC(=O)[C@@H](CC(C)C)N(C)C(=O)[C@H](C)NC(=O)[C@H](C)O)[C@@H](C)OC(=O)[C@H](Cc2ccc(OC)cc2)N(C)C(=O)[C@@H]2CCCN2C(=O)[C@H](CC(C)C)NC(=O)[C@@H](C)C(=O)[C@H](C(C)C)OC(=O)C[C@@H]1O` [Compound 35, [L-Ala^8]Didemnin B]?
Answer: two-way mixed lymphocyte reaction (MLR) suppression MLR, IC50 [1]: 0.00033 µg/mL; IC50 [1]: 0.31 nM; cytotoxicity to lymphocytes LbV, LC50 [2]: 0.717 nM; cytoxicity to lymphocytes LcV, LC50 [3]: > 9200 nM; cytoxicity to lymphocytes LcV, LC50 ([3]; highest concentration 10 μg/mL): > 10 µg/mL

Question: Which results are given for `CC[C@H](C)[C@H]1NC(=O)[C@@H](NC(=O)[C@@H](CC(C)C)N(C)C(=O)[C@@H]2CCCN2C(C)=O)[C@@H](C)OC(=O)[C@H](Cc2ccc(OC)cc2)N(C)C(=O)[C@@H]2CCCN2C(=O)[C@H](CC(C)C)NC(=O)[C@@H](C)C(=O)[C@H](C(C)C)OC(=O)C[C@@H]1O` [Compound 31, [Acetyl^9]Didemnin B] (Ac-P[dNMeL]T[X1]LP[NMeY](Me); ester 3-C)?
Answer: two-way mixed lymphocyte reaction (MLR) suppression MLR, IC50 [1]: 0.00022 µg/mL; IC50 [1]: 0.21 nM; cytotoxicity to lymphocytes LbV, LC50 [2]: 0.16 nM; cytoxicity to lymphocytes LcV, LC50 [3]: 2800 nM; cytoxicity to lymphocytes LcV, LC50 ([3]; highest concentration 10 μg/mL): 3.10 µg/mL

Question: `CC[C@H](C)[C@H]1NC(=O)[C@@H](NC(=O)[C@@H](CC(C)C)N(C)C(=O)[C@H]2CCCN2C(=O)C(C)C)[C@@H](C)OC(=O)[C@H](Cc2ccc(OC)cc2)N(C)C(=O)[C@@H]2CCCN2C(=O)[C@H](CC(C)C)NC(=O)[C@@H](C)C(=O)[C@H](C(C)C)OC(=O)C[C@@H]1O` [Compound 34, [Isobutyryl^9, D-Pro^8] Didemnin B] (Isobutyryl-[dP][dNMeL]T[X1]LP[NMeY](Me); ester 3-C) was tested. Which “two-way mixed lymphocyte reaction” value [1] did it give?
Answer: 0.00067 µg/mL

Question: And the IC50 [1]?
Answer: 0.6 nM

Question: What about the “cytotoxicity to lymphocytes LbV, LC50” value [2] of the same compound?
Answer: 4.81 nM

Question: What about the “cytoxicity to lymphocytes LcV, LC50” value [3] of the same compound?
Answer: 5600 nM

Question: What about the “cytoxicity to lymphocytes LcV, LC50” value ([3]; highest concentration 10 μg/mL) of the same compound?
Answer: 6.20 µg/mL

Question: With `CC[C@H](C)[C@H]1NC(=O)[C@@H](NC(=O)[C@@H](CC(C)C)NC)[C@@H](C)OC(=O)[C@H](Cc2ccc(OC)cc2)N(C)C(=O)[C@@H]2CCCN2C(=O)[C@H](CC(C)C)NC(=O)[C@@H](C)C(=O)[C@@H](C(C)C)OC(=O)C[C@@H]1O` [Compound 12, Epididemnin A1] (H-[dNMeL]T[X2]LP[NMeY](Me); ester 2-C) as the compound, how does the “two-way mixed lymphocyte reaction” value [1] read?
Answer: 0.081 µg/mL

Question: What about the IC50 [1] of the same compound?
Answer: 86 nM

Question: What about the “cytotoxicity to lymphocytes LbV, LC50” value [2] of the same compound?
Answer: 51 nM

Question: What about the “cytoxicity to lymphocytes LcV, LC50” value [3] of the same compound?
Answer: > 10600 nM

Question: And the “cytoxicity to lymphocytes LcV, LC50” value ([3]; highest concentration 10 μg/mL)?
Answer: > 10 µg/mL
